Measured values: patent publication US10219516B2, “Molecules having pesticidal utility, and intermediates, compositions, and processes, related thereto” (priority 2015, dated 2019)
Read-outs that look alike come from different tables or passages of the source.

Tests used:
Format in all cases: in vivo
[1] = tested on: Cabbage Looper (Trichoplusia ni, TRIPNI); experiment: Bioassay on Cabbage Looper (CL), 128-well diet tray assay; conditions: Trichoplusia ni
Summary of the method: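 Mortality of second instar larvae exposed to diet coated with 50 μg/cm^2 compound (acetone-water 90:10 vehicle, dried); 25° C., 5–7 days.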

[2] = tested on: Yellow Fever Mosquito (Aedes aegypti, AEDSAE); experiment: Bioassay on Yellow Fever Mosquito (YFM), 96-well plate larval assay; conditions: Species YFM (Yellow Fever Mosquito)
Summary of the method: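 Compound stocks at 4000 ppm in DMSO were diluted with 90:10 water/acetone, and 15 μL aliquots were dispensed into six replicate plates. About 1-day-old larvae in liver-powder water were added per well. Plates were covered and held at room temperature for 3 days before each well was scored for mortality.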

[3] = tested on: Beet Armyworm (Spodoptera exigua, LAPHEG); experiment: Bioassay on Beet Armyworm (BAW), 128-well diet tray assay
Summary of the method: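 Second-instar larvae, one to five per well, placed on artificial diet surface-treated with 50 μg/cm^2 compound applied in 90:10 acetone-water and dried. Held 5–7 days at 25° C., 14:10 light-dark. Percent mortality recorded per well and averaged over eight wells.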

[4] = tested on: Green Peach Aphid (Myzus persicae, MYZUPE); experiment: Bioassay on Green Peach Aphid (GPA), foliar spray on infested cabbage seedlings; conditions: 72 h
Procedure: Certain molecules disclosed in this document were tested against GPA using procedures described in the following example. In the reporting of the results, the “GPA & YFM Rating Table” was used (See Table Section).
Cabbage seedlings grown in 3-inch pots, with 2-3 small (3-5 cm) true leaves, were used as test substrate. The seedlings were infested with 20-50 GPA (wingless adult and nymph stages) one day prior to chemical application. Four pots with individual seedlings were used for each treatment. Test molecules (2 mg) were dissolved in 2 mL of acetone/methanol (1:1) solvent, forming stock solutions of 1000 ppm test molecule. The stock solutions were diluted 5× with 0.025% Tween 20 in water to obtain the solution at 200 ppm test molecule. A hand-held aspirator-type sprayer was used for spraying a solution to both sides of […] leaves until runoff. Reference plants (solvent check) were sprayed with the diluent only containing 20% by volume of acetone/methanol (1:1) solvent. Treated plants were held in a holding room for three days at approximately 25° C. and ambient relative humidity (RH) prior to grading. Evaluation was conducted by counting the number of live aphids per plant under a microscope. Percent control was measured using Abbott's correction formula (W. S. Abbott, “A Method of Computing the Effectiveness of an Insecticide” 3. Econ. Entomol. 18 (1925), pp. 265-267) as follows. Corrected % Control=100*(X−Y)/X where X=No. of live aphids on solvent check plants and Y=No. of live aphids on treated plants. The results are indicated in the table entitled “Table ABC: Biological Results” (See Table Section).

[5] = Species CL (Cabbage Looper), read-out: CL (Biological Results, rating)
[6] = Species BAW (Beet Armyworm), read-out: BAW (Biological Results, rating)
[7] = foliar, Species GPA (Green Peach Aphid), read-out: GPA (Biological Results, rating)

SMILES | pest or weed control at 50 µg/cm2 [1, 5] [%] | YFM (Biological Results, rating) [2] | pest or weed control at 50 µg/cm2 [3, 6] [%] | pest or weed control at 200 µg/mL [4, 7] [%] | pest or weed control at 50 µg/cm2 ([1]; Cabbage Looper, 128-well diet tray assay, read-out: CL rating) [%] | pest or weed control at 50 µg/cm2 ([3]; Beet Armyworm, 128-well diet tray assay, read-out: BAW rating) [%] | pest or weed control at 200 µg/mL ([4]; Green Peach Aphid, foliar spray on cabbage seedlings, read-out: GPA rating) [%]
O=C(Nc1ccc(F)cc1)c1cc(NC(=O)[C@H]2[C@H](c3cc(Cl)cc(Cl)c3)C2(Cl)Cl)ccc1Cl (relative stereo) [F1, trans-2-chloro-5-(2,2-dichloro-3-(3,5-dichlorophenyl)cyclopropane-1-carboxamido)-N-(4-fluorophenyl)benzamide] | 50 to 100 | A (80-100) | 50 to 100 | 0 to 80 | – | – | –
Cc1cc([C@H]2[C@H](C(=O)Nc3ccc(Cl)c(C(=O)N(C)c4ccc(F)cc4)c3)C2(Cl)Cl)cc(Cl)c1Cl (relative stereo) [F124, trans-2-Chloro-5-(2,2-dichloro-3-(3,4-dichloro-5-methylphenyl)cyclopropane-1-carboxamido)-N-(4-fluorophenyl)-N-methylbenzamide] | 50 to 100 | – | 50 to 100 | 0 to 80 | – | – | –
O=C(Nc1ccc(F)cc1)c1cc(NC(=O)[C@H]2[C@H](c3cc(Cl)cc(Cl)c3)C2(Cl)Cl)ccn1 (relative stereo) [F126, trans-4-(2,2-dichloro-3-(3,5-dichlorophenyl)cyclopropane-1-carboxamido)-N-(4-fluorophenyl)picolinamide] | 50 to 100 | – | 50 to 100 | 0 to 80 | – | – | –
O=C(Nc1ccc(F)cc1)c1cccc(NC(=O)[C@H]2[C@H](c3cc(Cl)cc(Cl)c3)C2(Cl)Cl)c1Cl (relative stereo) [F127, trans-2-Chloro-3-(2,2-dichloro-3-(3,5-dichlorophenyl)cyclopropane-1-carboxamido)-N-(4-fluorophenyl)benzamide] | 50 to 100 | – | 50 to 100 | 0 to 80 | – | – | –
COc1ccc(NC(=O)[C@H]2[C@H](c3cc(Cl)cc(Cl)c3)C2(Cl)Cl)cc1C(=O)Nc1ccc(F)cc1 (relative stereo) [F128, trans-5-(2,2-Dichloro-3-(3,5-dichlorophenyl)cyclopropane-1-carboxamido)-N-(4-fluorophenyl)-2-methoxybenzamide] | 50 to 100 | – | 0 to 50 | 0 to 80 | – | – | –
O=C(Nc1ccc(F)cc1)c1ccc(Cl)c(NC(=O)[C@H]2[C@H](c3cc(Cl)cc(Cl)c3)C2(Cl)Cl)c1 (relative stereo) [F130, trans-4-Chloro-3-(2,2-dichloro-3-(3,5-dichlorophenyl)cyclopropane-1-carboxamido)-N-(4-fluorophenyl)benzamide] | 50 to 100 | B (More than 0-Less than 80) | – | 0 to 80 | – | – | –
O=C(Nc1ccc(F)nc1)c1cc(NC(=O)[C@H]2[C@H](c3cc(Cl)cc(Cl)c3)C2(Cl)Cl)ccc1Cl (relative stereo) [F142, trans-2-chloro-5-(2,2-dichloro-3-(3,5-dichlorophenyl)cyclopropane-1-carboxamido)-N-(6-fluoropyridin-3-yl)benzamide] | 50 to 100 | – | 50 to 100 | 80 to 100 | – | – | –
COc1ccc(NC(=O)c2cc(NC(=O)[C@H]3[C@H](c4cc(Cl)cc(Cl)c4)C3(Cl)Cl)ccc2Cl)cc1 (relative stereo) [F146, trans-2-chloro-5-(2,2-dichloro-3-(3,5-dichlorophenyl)cyclopropane-1-carboxamido)-N-(4-methoxyphenyl)benzamide] | 50 to 100 | – | 50 to 100 | 80 to 100 | – | – | –
O=C(Nc1ccc(OC(F)(F)F)cc1)c1cc(NC(=O)[C@H]2[C@H](c3cc(Cl)cc(Cl)c3)C2(Cl)Cl)ccc1Cl (relative stereo) [F147, trans-2-Chloro-5-(2,2-dichloro-3-(3,5-dichlorophenyl)cyclopropane-1-carboxamido)-N-(4-(trifluoromethoxy)phenyl)benzamide] | 50 to 100 | – | 50 to 100 | 0 to 80 | – | – | –
O=C(Nc1ccc(OC(F)F)cc1)c1cc(NC(=O)[C@H]2[C@H](c3cc(Cl)cc(Cl)c3)C2(Cl)Cl)ccc1Cl (relative stereo) [F148, trans-2-Chloro-5-(2,2-dichloro-3-(3,5-dichlorophenyl)cyclopropane-1-carboxamido)-N-(4-(difluoromethoxy)phenyl)benzamide] | 50 to 100 | – | 50 to 100 | 0 to 80 | – | – | –
COc1ccc(NC(=O)c2cc(NC(=O)[C@H]3[C@H](c4cc(Cl)cc(Cl)c4)C3(Cl)Cl)ccc2Cl)c(F)c1 (relative stereo) [F150, trans-2-Chloro-5-(2,2-dichloro-3-(3,5-dichlorophenyl)cyclopropane-1-carboxamido)-N-(2-fluoro-4-methoxyphenyl)benzamide] | 50 to 100 | – | 50 to 100 | 80 to 100 | – | – | –
Cc1ccc(NC(=O)c2cc(NC(=O)[C@H]3[C@H](c4cc(Cl)cc(Cl)c4)C3(Cl)Cl)ccc2Cl)c(F)c1 (relative stereo) [F151, trans-2-Chloro-5-(2,2-dichloro-3-(3,5-dichlorophenyl)cyclopropane-1-carboxamido)-N-(2-fluoro-4-methylphenyl)benzamide] | 50 to 100 | – | 50 to 100 | 80 to 100 | – | – | –
CNC(=O)c1ccc(NC(=O)c2cc(NC(=O)[C@H]3[C@H](c4cc(Cl)cc(Cl)c4)C3(Cl)Cl)ccc2Cl)cc1 (relative stereo) [F152, trans-2-Chloro-5-(2,2-dichloro-3-(3,5-dichlorophenyl)cyclopropane-1-carboxamido)-N-(4-(methylcarbamoyl)phenyl)benzamide] | 50 to 100 | – | 50 to 100 | 0 to 80 | – | – | –
CC(=O)Nc1ccc(NC(=O)c2cc(NC(=O)[C@H]3[C@H](c4cc(Cl)cc(Cl)c4)C3(Cl)Cl)ccc2Cl)cc1 (relative stereo) [F153, trans-N-(4-Acetamidophenyl)-2-chloro-5-(2,2-dichloro-3-(3,5-dichlorophenyl)cyclopropane-1-carboxamido)benzamide] | 50 to 100 | – | 50 to 100 | 0 to 80 | – | – | –
O=C(Nc1cc(F)cc(F)c1)c1cc(NC(=O)[C@H]2[C@H](c3cc(Cl)cc(Cl)c3)C2(Cl)Cl)ccc1Cl (relative stereo) [F154, trans-2-Chloro-5-(2,2-dichloro-3-(3,5-dichlorophenyl)cyclopropane-1-carboxamido)-N-(3,5-difluorophenyl)benzamide] | 50 to 100 | – | 50 to 100 | 80 to 100 | – | – | –
O=C(Nc1ccc(Cl)c(C(=O)N2CCc3cc(F)ccc32)c1)[C@H]1[C@H](c2cc(Cl)cc(Cl)c2)C1(Cl)Cl (relative stereo) [F155, trans-2,2-Dichloro-N-(4-chloro-3-(5-fluoroindoline-1-carbonyl)phenyl)-3-(3,5-dichlorophenyl)cyclopropane-1-carboxamide] | 50 to 100 | – | 50 to 100 | 0 to 80 | – | – | –
O=C(Nc1ccc(F)cc1)c1cc(NC(=O)C2C(c3cc(Cl)cc(Cl)c3)C2(F)Cl)ccc1Cl (stereo not drawn) [PF153, 2-Chloro-5-(trans)-2-chloro-3-(3,5-dichlorophenyl)-2-fluorocyclopropane-1-carboxamido)-N-(4-fluorophenyl)benzamide] | – | – | – | – | 50 to 100 | 50 to 100 | 80 to 100
